Assay results as given in patent US6281363A, “Cyclic hydrazine derivatives” (Hoffmann-La Roche Inc., priority 1998, dated 2001).

The molecules below were run on LPS-induced TNF-α release (assay: inhibition of LPS-induced TNF-α release from THP1 cells (TNF-α by ELISA)). Settings: Homo sapiens, THP-1, LPS 2 mg/ml, 0.5 hour preincubation with compound, 3 hours at 37° C. with LPS, read-out: IC50 (concentration of test compound which brings about 50% inhibition of LPS-induced TNF-α release).
Assay type: cell-based
Description: Aliquots (200 μl) of the cell suspension were plated out on 96 well culture plates and incubated for 0.5 hour at 37° C. prior to the addition of the test compounds. The latter were dissolved in dimethyl sulphoxide (DMSO) to a stock concentration of 1.2 mM which was diluted with phosphate buffered saline/10% DMSO solution to provide test compounds in final concentrations of 10^-9 to 10^-5 M, with each concentration being tested in duplicate. The cells were incubated with the test compounds for 0.5 hour at 37° C., LPS (bacterial lipopolysaccharide) was then added to a concentration of 2 mg/ml and incubation was continued for 3 hours at 37° C. in an atmosphere containing 5% CO2 and at 95% relative humidity. After centrifugation at 260 g for 10 minutes an aliquot of each supernatant was removed and the amount of TNF-α was estimated by ELISA (R & D Systems Europe Ltd., Abingdon, England).

| IC50 [µM] | Compound |
| --- | --- |
| 0.387 | CC(C)C[C@@H](C(=O)NN1C(=O)N[C@@H](CO)C1=O)[C@H](CCCc1ccccc1)C(=O)NO [Compound I, 2(R)-[1(S)-(Hydroxycarbamoyl)-4-phenylbutyl]-N-[4(S)-(hydroxymethyl)-2,5-dioxo-1-imidazolidinyl]-4-methylvaleramide] |
| 0.597 | CC(C)C[C@@H](C(=O)NN1C(=O)[C@H](C(C)C)NC1=S)[C@H](CCCc1ccccc1)C(=O)NO [Compound J, 2(R)-[1(S)-(Hydroxycarbamoyl)-4-phenylbutyl]-N-(4(S)-isopropyl-5-oxo-2-thioxo-1-imidazolidinyl)-4-methylvaleramide] |
| 0.162 | CC[C@H](C)[C@@H]1NC(=O)N(NC(=O)[C@H](CC(C)C)[C@H](C/C=C/c2ccccc2)C(=O)NO)C1=O [Compound K, (E)-2(R)-[1(S)-(Hydroxycarbamoyl)-4-phenyl-3-butenyl]-N-[4(S)-(1(S)-methylpropyl)-2,5-dioxo-1-imidazolidinyl]-4-methylvaleramide] |
| 0.302 | CC(C)C[C@@H](C(=O)NN1C(=O)N[C@@H](CO)C1=O)[C@H](C/C=C/c1ccccc1)C(=O)NO [Compound L, (E)-2(R)-[1(S)-(Hydroxycarbamoyl)-4-phenyl-3-butenyl]-N-[4(S)-(hydroxymethyl)-2,5-dioxo-1-imidazolidinyl]-4-methylvaleramide] |
| 0.62 | CC(C)C[C@@H](C(=O)NN1C(=O)NC2(CCN(C(=O)OCc3ccccc3)CC2)C1=O)[C@H](CCCc1ccccc1)C(=O)NO [Compound M, Benzyl 3-[2(R)-[1(S)-(hydroxycarbamoyl)-4-phenylbutyl]-4-methylvaleramido]-2,4-dioxo-1,3,8-triazaspiro[4,5]decane-8-carboxylate] |
| 0.172 | CC(C)C[C@@H](C(=O)Nn1c(=O)[nH]c2ccsc2c1=O)[C@H](CCCc1ccccc1)C(=O)NO [Compound N, N-(1,2,3,4-Tetrahydro-2,4-dioxothieno[3,2-d]pyrimidin-3-yl)-2(R)-[1(S)-(hydroxycarbamoyl)-4-phenylbutyl]-4-methylvaleramide] |
| 0.177 | CC(C)C[C@@H](C(=O)Nn1c(=O)[nH]c2cscc2c1=O)[C@H](CCCc1ccccc1)C(=O)NO [Compound O, N-(1,2,3,4-Tetrahydro-2,4-dioxothieno[3,4-d]pyrimidin-3-yl)-2(R)-[1(S)-(hydroxycarbamoyl)-4-phenylbutyl]-4-methylvaleramide] |
| 0.346 | COC[C@@H]1NC(=O)N(NC(=O)[C@H](CC(C)C)[C@H](CCCc2ccccc2)C(=O)NO)C1=O [Compound P] |
| 0.234 | CC(C)C[C@@H](C(=O)NN1C(=O)CNC1=O)[C@H](CCCc1ccccc1)C(=O)NO [Compound Q, 2(R)-[1(S)-(Hydroxycarbamoyl)-4-phenylbutyl]-4-methyl-N-(2,5-dioxo-1-imidazolidinyl)valeramide] |
| 0.481 | CC(=O)N1CCC2(CC1)NC(=O)N(NC(=O)[C@H](CC(C)C)[C@H](CCCc1ccccc1)C(=O)NO)C2=O [Compound R, 1-(8-Acetyl-2,4-dioxo-1,3,8-triazaspiro[4. 5]decan-3-yl)-2(R)-[1(S)-(hydroxycarbamoyl)-4-phenylbutyl]-4-methylvaleramide] |
| 0.308 | CC(C)C[C@@H](C(=O)NN1C(=O)CNC1=O)[C@H](Cc1ccc(-c2ccccc2)cc1)C(=O)NO [Compound S, 2(R)-[2-(4-Biphenylyl)-1(S)-(hydroxycarbamoyl)ethyl]-N-(2,5-dioxo-1-imidazolidinyl)-4-methylvaleramide] |

The remaining lines, values behind:

| Compound | IC50 [µM] |
| --- | --- |
| CC(C)C[C@@H](C(=O)NN1C(=O)CNC1=O)[C@H](C/C=C/c1ccccc1)C(=O)NO [Compound A, (E)-2(R)-[1(S)-(Hydroxycarbamoyl)-4-phenyl-3-butenyl]-4-methyl-N-(2,5-dioxo-1-imidazolidinyl)valeramide] | 0.28 |
| CC(C)C[C@@H](C(=O)NN1C(=O)CCNC1=O)[C@H](C/C=C/c1ccccc1)C(=O)NO [Compound B, (E)-N-(Hexahydro-2,6-dioxo-1-pyrimidinyl)-2(R)-[1(S)-(hydroxycarbamoyl)-4-phenyl-3-butenyl]-4-methylvaleramide] | 0.382 |
| CC(C)C[C@@H](C(=O)NN1C(=O)CNC1=O)[C@H](CCCC1CCCCC1)C(=O)NO [Compound C, 2(R)-[4-Cyclohexyl-1(S)-(hydroxycarbamoyl)butyl]-4-methyl-N-(2,5-dioxo-1-imidazolidinyl)valeramide] | 0.242 |
| CC(C)C[C@@H](C(=O)NN1C(=O)NCCS1(=O)=O)[C@H](C/C=C/c1ccccc1)C(=O)NO [Compound D, (E)-N-(Tetrahydro-3-oxo-2H-1,2,4-thiadiazin-2-yl)-2(R)-[1(S)-(hydroxycarbamoyl)-4-phenyl-3-butenyl]-4-methylvaleramide S,S-dioxide] | 0.389 |
| CC(C)C[C@@H](C(=O)NN1C(=O)CNCC1=O)[C@H](CCCc1ccccc1)C(=O)NO [Compound E, 2(R)-[1(S)-(Hydroxycarbamoyl)-4-phenylbutyl]-4-methyl-N-(2,6-dioxo-1-piperazinyl)valeramide p-toluenesulphonate] | 1.45 |
| CC(C)C[C@@H](C(=O)NN1C(=O)N[C@@H](C(C)C)C1=O)[C@H](CCCc1ccccc1)C(=O)NO [Compound F, 2(R)-[1(S)-(Hydroxycarbamoyl)-4-phenylbutyl]-N-(4(S)-isopropyl-2,5-dioxo-1-imidazolidinyl)-4-methylvaleramide] | 0.156 |
| CC[C@H](C)[C@@H]1NC(=O)N(NC(=O)[C@H](CC(C)C)[C@H](CCCc2ccccc2)C(=O)NO)C1=O [Compound G] | 0.147 |
| CSCC[C@@H]1NC(=O)N(NC(=O)[C@H](CC(C)C)[C@H](CCCc2ccccc2)C(=O)NO)C1=O [Compound H, 2(R)-[1(S)-(Hydroxycarbamoyl)-4-phenylbutyl]-4-methyl-N-[4(S)-[2-(methylthio)ethyl]-2,5-dioxo-1-imidazolidinyl]valeramide] | 0.234 |
